{"source": "patent US9636342B2", "about": "“Method for treating prostate cancer” (UNIVERSITY OF SOUTH CAROLINA, priority 2012, dated 2017)", "key": {"CWR22rv1 cells": {"tested_on": "CWR22rv1 cells", "assay": "Growth of androgen-independent CWR22rv1 cells in androgen-depleted CSS media (cell count)", "type": "cell-based", "conditions": "for growth (total cell number): 5 μM Senexin B or 10 μM MDV3100 (FIG. 6B)", "from_the_text": "(§1) In most of CRPC patients, prostate cancer tumor cells restore their AR activities despite low-androgen environment or presence of AR antagonists."}, "[1]": {"tested_on": "AR-dependent genes in LNCaP-LN3 cells", "assay": "qPCR expression of AR-dependent genes KLK3 (PSA) and KLK2 in LNCaP-LN3 cells without androgen", "type": "cell-based", "conditions": "for expression of KLK2 / expression of PSA: LNCaP-LN3 cells, absence of androgen, 5 μM Senexin B or 10 μM MDV3100 (FIG. 6D)", "from_the_text": "(§2) Endogenous AR activities in these cells were estimated by qPCR analysis of mRNA expression of AR-dependent genes, KLK3 (PSA) and KLK2."}, "LNCaP-LN3 cells": {"tested_on": "LNCaP-LN3 cells", "assay": "Growth of androgen-independent LNCaP-LN3 cells in androgen-depleted CSS media (cell count)", "type": "cell-based", "conditions": "for growth (total cell number): LNCaP-LN3 cells, 5 μM Senexin B or 10 μM MDV3100 (FIG. 6B)", "from_the_text": "as §1"}, "[2]": {"tested_on": "AR-dependent genes in CWR22rv1 cells", "assay": "qPCR expression of AR-dependent genes KLK3 (PSA) and KLK2 in CWR22rv1 cells without androgen", "type": "cell-based", "conditions": "for expression of KLK2 / expression of PSA: absence of androgen, 5 μM Senexin B or 10 μM MDV3100 (FIG. 6D)", "from_the_text": "as §2"}, "AR": {"tested_on": "AR", "assay": "Promoter activity assay (firefly luciferase reporter) in HEK293 cells overexpressing full-length wild-type AR", "type": "cell-based", "conditions": "for activation of androgen-responsive construct (firefly luciferase reporter under PSA gene promoter): HEK-293 cells overexpressing AR, in the presence of R1881 (FIG. 4A, FIG. 5)"}, "[3]": {"tested_on": "androgen-responsive genes in LNCaP cells", "assay": "qPCR expression of androgen-responsive genes in LNCaP cells", "type": "cell-based"}, "Water solubility": {"assay": "Water solubility", "type": "physicochemical", "from_the_text": "(§3) These small molecules selectively bind to the ATP pockets of CDK8/19 to inhibit their kinase activity."}, "CDK8": {"target": "CDK8 (Homo sapiens, UniProt P49336)", "sequence (P49336 whole entry)": "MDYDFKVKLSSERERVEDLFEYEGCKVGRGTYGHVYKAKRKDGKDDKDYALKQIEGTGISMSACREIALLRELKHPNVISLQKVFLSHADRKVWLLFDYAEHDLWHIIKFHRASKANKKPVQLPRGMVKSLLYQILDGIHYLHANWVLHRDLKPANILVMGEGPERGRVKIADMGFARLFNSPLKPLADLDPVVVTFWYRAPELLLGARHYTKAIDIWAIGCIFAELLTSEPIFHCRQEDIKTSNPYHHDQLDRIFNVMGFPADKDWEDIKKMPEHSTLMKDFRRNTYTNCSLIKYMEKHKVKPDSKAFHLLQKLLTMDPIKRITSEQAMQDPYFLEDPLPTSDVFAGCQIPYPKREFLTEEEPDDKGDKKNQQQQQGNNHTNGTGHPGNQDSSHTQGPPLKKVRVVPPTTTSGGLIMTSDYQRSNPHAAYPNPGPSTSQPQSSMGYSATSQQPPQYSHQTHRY", "assay": "Senexin B inhibition of CDK8 kinase activity (Kd)", "type": "binding", "from_the_text": "The invention provides a method for treating prostate cancer in a subject comprising administering to the subject an effective amount of a selective inhibitor of one or more of CDK8 and CDK19. […] For purposes of the invention, “specific inhibitors of CDK8/19” are small molecule compounds that inhibit CDK8 or CDK8 and CDK19 to a greater extent than they inhibit certain other CDKs. In some embodiments, such compounds further inhibit CDK8 to a greater extent than CDK9. In preferred embodiments, such greater extent is at least 2-fold more than CDK9. Compounds that are useful in the invention are described in co-pending US Patent Publications 20120071477 and 20120071477 and PCT Publication WO2013/116786. Extent of inhibition is measured by the assays taught in co-pending PCT Publication WO2013/116786.\nas §3"}, "PC-3 cells": {"tested_on": "PC-3 cells", "assay": "Growth of PC-3 cells in androgen-depleted CSS media (cell count)", "type": "cell-based", "conditions": "different concentrations of Senexin B, p<0.05 vs DMSO (FIG. 7)", "from_the_text": "PC-3 cell growth was previously shown to be inhibited by the inhibition of transcription factor NFκB^43-45, and CDK8/19 inhibition was discovered by Senex to decrease the induction of NFκB transcriptional activity (PCT Publication WO2013/040153)."}, "C4-2 cells": {"tested_on": "C4-2 cells", "assay": "Growth of androgen-independent C4-2 cells in androgen-depleted CSS media (cell count)", "type": "cell-based", "conditions": "different concentrations of Senexin B (FIG. 6A)", "from_the_text": "as §1"}, "[4]": {"tested_on": "AR-dependent genes in C4-2 cells", "assay": "qPCR expression of AR-dependent genes KLK3 (PSA) and KLK2 in C4-2 cells without androgen", "type": "cell-based", "conditions": "CSS media 2d, treated 24 hours (FIG. 6C)", "from_the_text": "as §2"}, "[5]": {"tested_on": "LN-CaP LN3 (LN3) prostate cancer cells xenograft", "assay": "LNCaP-LN3 xenograft growth in nude mice", "type": "in vivo, nude male mice", "conditions": "40 mg/kg i.p. daily", "method": "6-8 week-old nude male mice (Jackson Laboratory) were subcutaneously injected with 2 million LN-CaP LN3 (LN3) prostate cancer cells in the right flank, with Matrigel. Visible tumors formed ˜14 days after injection. […] The tumor size was measured by caliper 3 times per week and calculated by the equation length*width*width*0.5. […] At the end of the experiment, mice from each group were sacrificed to determine final tumor weight."}}}
{"compound": "CNC(=O)c1ccc(N2C(=S)N(c3ccc(C#N)c(C(F)(F)F)c3)C(=O)C2(C)C)cc1F", "note": "[MDV3100, enzalutamide, reference compound]", "values": [{"measurement": "growth (total cell number)", "setting": "CWR22rv1 cells", "result": "does not inhibit"}, {"measurement": "expression of KLK2", "setting": "[1]", "result": "does not down-regulate"}, {"measurement": "expression of PSA", "setting": "[1]", "result": "weakly down-regulates"}, {"measurement": "growth (total cell number)", "setting": "LNCaP-LN3 cells", "result": "weakly inhibited"}, {"measurement": "expression of KLK2", "setting": "[2]", "result": "does not down-regulate"}, {"measurement": "expression of PSA", "setting": "[2]", "result": "does not down-regulate"}]}
{"compound": "N#Cc1ccc2ncnc(NCCc3ccccc3)c2c1", "note": "[Senexin A]", "values": [{"measurement": "activation of androgen-responsive construct (firefly luciferase reporter under PGC gene promoter)", "setting": "AR; HEK293 cells overexpressing AR, Senexin A 1 μM and 5 μM, in the presence of R1881 (FIG. 4B)", "result": "significantly inhibits"}, {"measurement": "activation of androgen-responsive construct (firefly luciferase reporter under PSA gene promoter)", "setting": "AR", "result": "significantly inhibited"}, {"measurement": "androgen-stimulated transcriptional activation of androgen-responsive genes PSA (KLK3), KLK2, TMPRSS2, PGC", "setting": "[3]; LNCaP cells, Senexin A 5 μM, androgen-supplemented (500 pM R1881) or androgen-deprived conditions (FIG. 2A)", "result": "significantly inhibited"}]}
{"compound": "CN1CCN(C(=O)c2ccc3cc(CCNc4ncnc5ccc(C#N)cc45)ccc3c2)CC1", "note": "[Senexin B]", "values": [{"measurement": "water solubility", "setting": "Water solubility", "result": "≤ 50", "unit": "mM"}, {"measurement": "Kd", "setting": "CDK8", "result": 140, "unit": "nM"}, {"measurement": "growth (total cell number)", "setting": "CWR22rv1 cells", "result": "significantly inhibited"}, {"measurement": "androgen-independent growth (total cell number)", "setting": "CWR22rv1 cells; different concentrations of Senexin B (FIG. 6A)", "result": "strongly inhibited"}, {"measurement": "expression of PSA and KLK2", "setting": "[1]; LN3 cells, CSS media 2d, treated 24 hours (FIG. 6C)", "result": "down-regulated"}, {"measurement": "expression of KLK2", "setting": "[1]", "result": "strongly down-regulates"}, {"measurement": "expression of PSA", "setting": "[1]", "result": "strongly down-regulates"}, {"measurement": "growth of PC-3 cells (total cell number)", "setting": "PC-3 cells", "result": "inhibited"}, {"measurement": "androgen-independent growth (total cell number)", "setting": "LNCaP-LN3 cells; LN3 cells, different concentrations of Senexin B (FIG. 6A)", "result": "strongly inhibited"}, {"measurement": "growth (total cell number)", "setting": "LNCaP-LN3 cells", "result": "strongly inhibited"}, {"measurement": "androgen-independent growth (total cell number)", "setting": "C4-2 cells", "result": "strongly inhibited"}, {"measurement": "expression of PSA and KLK2", "setting": "[4]", "result": "down-regulated"}, {"measurement": "activation of androgen-responsive construct (firefly luciferase reporter under PSA gene promoter)", "setting": "AR", "result": "significantly inhibited"}, {"measurement": "effect on the inhibition of androgen-inhibited genes AR, OPRK1, STXBP6 by androgen", "setting": "[3]; LNCaP cells, Senexin B 1 μM and 4 μM (FIG. 2C)", "result": "did not interfere with the inhibition"}, {"measurement": "androgen-stimulated transcriptional activation of androgen-responsive genes PSA (KLK3), KLK2, TMPRSS2, SGK1, KLF5, PGC", "setting": "[3]; LNCaP cells, Senexin B 1 μM and 4 μM, androgen-supplemented (500 pM R1881, 24 hr after 5-day deprivation) (FIG. 2B)", "result": "significantly inhibited"}, {"measurement": "androgen-stimulated transcription of androgen-responsive genes after pretreatment", "setting": "[3]; androgen-deprived LNCaP cells, Senexin B 1 μM and 4 μM added 1 hr before 500 pM R1881, p<0.05 vs DMSO (FIG. 3)", "result": "significantly inhibited"}, {"measurement": "expression of PSA and KLK2", "setting": "[2]; CSS media 2d, treated 24 hours (FIG. 6C)", "result": "down-regulated"}, {"measurement": "expression of KLK2", "setting": "[2]", "result": "strongly down-regulates"}, {"measurement": "expression of PSA", "setting": "[2]", "result": "strongly down-regulates"}, {"measurement": "appearance (health) of treated mice", "setting": "[5]; 5 days per week for 2 weeks", "result": "looked as healthy as the mice in the vehicle control group"}, {"measurement": "body weight of the hosts", "setting": "[5]; 5 days per week for 2 weeks (FIG. 9)", "result": "no effects"}, {"measurement": "tumor growth (tumor volume)", "setting": "[5]; 5 days per week for 2 weeks, relative to vehicle control (FIG. 8)", "result": "dramatically inhibits"}, {"measurement": "final tumor weight", "setting": "[5]; 5 days per week for 2 weeks, vs control group (FIG. 10)", "result": "significantly lower"}]}
